Laboratory results from PubChem BioAssay AID1259246 (Broad Institute, 2017).
“And” between values parts separate entries of the source, which are not always exact repeats. Identical values can stand only once. Results filed as inconclusive are left out. The source made the active and inactive calls.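 How the source made its calls: active means valid dose-response fit whose half-maximal growth-inhibiting concentration is at or below a set limit above the top tested dose; inconclusive means flat fit with effect between 30 and 70%, or poor fit; inactive means half-maximal concentration above a set limit.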

Assay: antibacterial activity against Clostridioides difficile – 10-point retest, dose response (AID 1259246)
Conditions: Clostridioides difficile clinical isolate growth, OD600, 24 h

Row | SMILES | activity change, negative = inhibition (at 120 µM (top of the series)) | also measured
1 | CC(C)CC#Cc1ccc2c(c1)O[C@H](CN(C)Cc1ccc(F)cc1)[C@H](C)CN([C@H](C)CO)S2(=O)=O | 28% (inactive) and 85.7% (inactive) | 
2 | O=C(C[C@H]1C[C@@H]2c3cc(NC(=O)C4CCC4)ccc3O[C@@H]2[C@@H](CO)O1)NCc1ccc2c(c1)OCO2 |  | activity change, negative = inhibition (at 135 µM (top of the series)): -9.69% (inactive)
3 | COc1ccc(NC(=O)Nc2cccc3c2O[C@H](CN(C)Cc2ccc(Oc4ccccc4)cc2)[C@@H](C)CN([C@H](C)CO)C3=O)cc1 | 17.1% (inactive) | 
4 | C[C@@H]1CN([C@@H](C)CO)S(=O)(=O)c2ccc(C#CC3CCCCC3)cc2O[C@@H]1CN(C)Cc1cccnc1 | 13.1% (inactive) | 
5 | C[C@@H]1CN([C@@H](C)CO)S(=O)(=O)c2ccc(/C=C/c3ccccc3)cc2O[C@H]1CN(C)C(=O)Nc1ccc(F)cc1 | 32.6% (inactive) | 
6 | CO[C@H]1CN(C)C(=O)c2ccc(NC(=O)c3nc4ccccc4s3)cc2OC[C@H](C)N(Cc2ccncc2)C[C@H]1C | 18.4% (inactive) | 
7 | C[C@H](CO)N1C[C@H](C)[C@H](CN(C)Cc2ccc(-c3ccccc3)cc2)Oc2ccc(NC(=O)C3CC3)cc2CC1=O |  | activity change, negative = inhibition (at 135 µM (top of the series)): 13.1% (inactive)
8 | O=C(C[C@@H]1C[C@@H]2c3cc(NC(=O)C4CCC4)ccc3O[C@@H]2[C@H](CO)O1)NCc1ccc(Cl)cc1 | -2.36% (inactive) | 
9 | C[C@@H]1CN([C@H](C)CO)C(=O)c2cccc(NC(=O)Nc3ccc4c(c3)OCO4)c2O[C@@H]1CN(C)Cc1ccc(-c2ccccc2)cc1 |  | activity change, negative = inhibition (at 135 µM (top of the series)): 12.1% (inactive)
10 | Cc1noc(C)c1S(=O)(=O)Nc1ccc2c(c1)C(=O)N([C@@H](C)CO)C[C@H](C)[C@@H](CN(C)Cc1ccc3c(c1)OCO3)OCCCC[C@@H](C)O2 |  | activity change, negative = inhibition (at 60 µM (top of the series)): 3.17% (inactive)
11 | O=C(C[C@H]1C[C@@H]2c3cc(NC(=O)NC4CCCC4)ccc3O[C@@H]2[C@@H](CO)O1)NCc1ccc2c(c1)OCO2 | -10.4% (inactive) | 
12 | O=C(C[C@H]1C[C@@H]2c3cc(NC(=O)C4CCC4)ccc3O[C@@H]2[C@@H](CO)O1)NCc1ccccc1 |  | activity change, negative = inhibition (at 60 µM (top of the series)): 6.59% (inactive)
13 | O=C(C[C@H]1C[C@H]2c3cc(NC(=O)Nc4ccccc4)ccc3O[C@H]2[C@@H](CO)O1)NC1CCCC1 |  | activity change, negative = inhibition (at 135 µM (top of the series)): 11% (inactive)
14 | COc1ccc(NC(=O)Nc2ccc3c(c2)[C@H]2C[C@H](CC(=O)NCc4ccccc4F)O[C@@H](CO)[C@H]2O3)cc1 | 3.92% (inactive) | 
15 | COc1ccc(NC(=O)Nc2cccc3c2O[C@@H](CN(C)Cc2ccc(Oc4ccccc4)cc2)[C@H](C)CN([C@H](C)CO)C3=O)cc1 | 16.6% (inactive) | 
16 | C[C@H](CO)N1C[C@H](C)[C@@H](CN(C)C(=O)NC2CCCCC2)Oc2c(NC(=O)Nc3cccc4ccccc34)cccc2C1=O | 23.7% (inactive) | 
17 | C[C@H]1CN([C@@H](C)CO)C(=O)Cc2cc(NC(=O)CCCN(C)C)ccc2O[C@H]1CN(C)Cc1ccc(-c2ccccc2)cc1 | 20.8% (inactive) | 
18 | C[C@H](CO)N1C[C@H](C)[C@@H](CN(C)C(=O)Nc2cccc3ccccc23)Oc2ccc(NC(=O)CCN3CCOCC3)cc2C1=O | 38.8% (inactive) | 
19 | N#C[C@@H]1[C@@H](c2ccc(C#Cc3ccccc3F)cc2)[C@H](CO)N1C(=O)C1CCCCC1 |  | activity change, negative = inhibition (at 60 µM (top of the series)): 9.57% (inactive)
20 | O=C(C[C@@H]1C[C@@H]2c3cc(NC(=O)Nc4ccc(F)cc4)ccc3O[C@@H]2[C@@H](CO)O1)NC1CCCCC1 | -8.47% (inactive) | 

Row | SMILES | activity change, negative = inhibition (at 120 µM (top of the series)) | also measured
21 | C[C@@H]1CN([C@H](C)CO)S(=O)(=O)c2ccc(C#CC3CCCC3)cc2O[C@H]1CN(C)Cc1cncnc1 | 38.8% (inactive) | 
22 | CC(C)C#Cc1ccc2c(c1)O[C@@H](CN(C)Cc1cccnc1)[C@H](C)CN([C@H](C)CO)S2(=O)=O | 27.7% (inactive) | 
23 | C[C@@H]1CN([C@H](C)CO)S(=O)(=O)c2ccc(C#CCN(C)C)cc2O[C@@H]1CN(C)Cc1ccc2c(c1)OCO2 | 0.003% (inactive) | 
24 | C[C@@H]1CN([C@H](C)CO)C(=O)c2cccc(NC(=O)Nc3ccc(C(F)(F)F)cc3)c2O[C@H]1CN(C)Cc1ccncc1 | 56.1% (inactive) | 
25 | C[C@@H]1CN([C@@H](C)CO)C(=O)Cc2cc(NC(=O)C3CC3)ccc2O[C@@H]1CN(C)Cc1ccccc1 |  | activity change, negative = inhibition (at 135 µM (top of the series)): 0.355% (inactive)
26 | Cc1ccc(S(=O)(=O)N2C[C@@H](O)COC[C@H]3O[C@H](CC(=O)NCc4ccc(Cl)c(Cl)c4)CC[C@@H]32)cc1 | 22.9% (inactive) and 25.2% (inactive) and 97.3% (inactive) | 
27 | Cc1ccc(-c2ccc3c(c2)O[C@@H](CN(C)Cc2cccnc2)[C@H](C)CN([C@@H](C)CO)S3(=O)=O)cc1 | 10.2% (inactive) | 
28 | C[C@@H]1CN([C@@H](C)CO)C(=O)c2cccc(NC(=O)Nc3ccc(C(F)(F)F)cc3)c2O[C@@H]1CN(C)S(=O)(=O)c1ccc(Cl)cc1 | 22.7% (inactive) | 
29 | C[C@@H]1CN([C@@H](C)CO)C(=O)c2cccc(NC(=O)Nc3ccc4c(c3)OCO4)c2O[C@@H]1CN(C)C(=O)Nc1cccc2ccccc12 | 6.09% (inactive) | 
30 | C[C@@H]1CCCCO[C@H](CN(C)S(=O)(=O)c2ccc(F)cc2)[C@H](C)CN([C@H](C)CO)C(=O)c2cc(NC(=O)Nc3cccc4ccccc34)ccc2O1 | 23.1% (inactive) | 
31 | C[C@@H]1CN([C@@H](C)CO)C(=O)c2cccc(NC(=O)Nc3ccc(C(F)(F)F)cc3)c2O[C@H]1CN(C)Cc1ccc(-c2ccccc2)cc1 | 20.3% (inactive) | 
32 | C[C@@H]1CN([C@@H](C)CO)C(=O)c2ccccc2-c2ccccc2CO[C@@H]1CN(C)S(=O)(=O)c1ccc([N+](=O)[O-])cc1 | 35.2% (inactive) | 
33 | O=C(C[C@H]1C[C@H]2c3cc(NC(=O)Nc4ccc(F)cc4)ccc3O[C@H]2[C@@H](CO)O1)NC1CCCCC1 |  | activity change, negative = inhibition (at 135 µM (top of the series)): -1.5% (inactive)
34 | CC(C)CC#Cc1ccc2c(c1)O[C@@H](CN(C)Cc1ccc3c(c1)OCO3)[C@@H](C)CN([C@H](C)CO)S2(=O)=O | 23.6% (inactive) | 
35 | C[C@@H]1CN([C@H](C)CO)C(=O)Cc2cc(NC(=O)CCCN(C)C)ccc2O[C@H]1CN(C)C | 0.476% (inactive) | 
36 | Cc1ccc(S(=O)(=O)N(C)C[C@H]2Oc3ccc(NS(C)(=O)=O)cc3C(=O)N([C@@H](C)CO)C[C@H]2C)cc1 |  | activity change, negative = inhibition (at 135 µM (top of the series)): 9.46% (inactive)
37 | O=C(C[C@H]1C[C@@H]2c3cc(NS(=O)(=O)c4ccc(F)cc4)ccc3O[C@@H]2[C@H](CO)O1)NCc1ccc(-c2ccccc2)cc1 | 25.5% (inactive) | 
38 | O=C(C[C@H]1C[C@@H]2c3cc(NC(=O)C4CCC4)ccc3O[C@@H]2[C@H](CO)O1)NCc1ccc(Cl)cc1 |  | activity change, negative = inhibition (at 135 µM (top of the series)): 4.22% (inactive)
39 | C/C=C/c1ccc2c(c1)O[C@H](CN(C)Cc1ccc(F)cc1)[C@H](C)CN([C@@H](C)CO)S2(=O)=O | 7.75% (inactive) | 
40 | COc1ccccc1CNC(=O)C[C@H]1C[C@@H]2c3cc(NC(=O)C4CCC4)ccc3O[C@@H]2[C@@H](CO)O1 |  | activity change, negative = inhibition (at 60 µM (top of the series)): 2.54% (inactive)

Row | SMILES | activity change, negative = inhibition (at 120 µM (top of the series)) | also measured
41 | CNC[C@@H]1Oc2cc(Br)ccc2S(=O)(=O)N([C@H](C)CO)C[C@H]1C | 2.27% (inactive) | 
42 | COC(=O)[C@@H]1[C@@H](CO)[C@@H]2Cn3c(ccc(-c4cccc(F)c4)c3=O)[C@@H]2N1C(C)=O |  | activity change, negative = inhibition (at 60 µM (top of the series)): 9.82% (inactive)
43 | C[C@@H]1CN([C@@H](C)CO)C(=O)Cc2cc(NC(=O)CCC(F)(F)F)ccc2O[C@H]1CN(C)Cc1ccc(Oc2ccccc2)cc1 |  | activity change, negative = inhibition (at 135 µM (top of the series)): 8.79% (inactive)
44 | C[C@@H]1CN([C@H](C)CO)C(=O)c2cccc(NC(=O)Nc3ccc(C(F)(F)F)cc3)c2O[C@@H]1CN(C)C(=O)NC1CCCCC1 | 7.85% (inactive) | 
45 | C[C@H](CO)N1C[C@H](C)[C@H](CN(C)Cc2ccc(-c3ccccc3)cc2)Oc2c(NC(=O)Nc3ccc4c(c3)OCO4)cccc2C1=O | 24.3% (inactive) | 
46 | C[C@@H]1CN([C@H](C)CO)C(=O)c2cccc(NC(=O)Nc3ccccc3)c2O[C@@H]1CN(C)Cc1ccc(Oc2ccccc2)cc1 | 32.9% (inactive) | 
47 | CNC[C@H]1Oc2c(N)cccc2C(=O)N([C@@H](C)CO)C[C@H]1C | -0.016% (inactive) | 
48 | CNC[C@H]1Oc2ccc(NC(=O)C3CC3)cc2CC(=O)N([C@H](C)CO)C[C@H]1C | -1.55% (inactive) | 
49 | CO[C@@H]1CN(C)C(=O)c2ccc(NC(=O)c3nc4ccccc4s3)cc2OC[C@H](C)N(Cc2ccncc2)C[C@@H]1C | 10.8% (inactive) | 
50 | O=C(C[C@H]1C[C@H]2c3cc(NC(=O)C4CCC4)ccc3O[C@H]2[C@H](CO)O1)NCc1ccc(Cl)cc1 | 6.93% (inactive) | 
51 | C[C@H]1CN([C@@H](C)CO)C(=O)c2cccc(NC(=O)Nc3ccc(C(F)(F)F)cc3)c2O[C@@H]1CN(C)C(=O)NC1CCCCC1 | 19.5% (inactive) | 
52 | C[C@@H]1CN([C@H](C)CO)C(=O)c2cc(NC(=O)Nc3cccc4ccccc34)ccc2O[C@@H](C)CCCCO[C@@H]1CN(C)S(=O)(=O)c1ccc(F)cc1 | 12% (inactive) | 
53 | C[C@H](CO)N1C[C@H](C)[C@@H](CN(C)C(=O)Nc2ccc(F)cc2)OCCCC[C@H](C)Oc2ccc(NC(=O)Nc3cccc4ccccc34)cc2C1=O | 40.4% (inactive) | 
54 | C[C@@H]1CCCCO[C@@H](CN(C)S(=O)(=O)c2ccc(F)cc2)[C@H](C)CN([C@@H](C)CO)C(=O)c2cc(NC(=O)Nc3cccc4ccccc34)ccc2O1 | 18.9% (inactive) | 
55 | Cc1ccc(S(=O)(=O)N[C@@H]2CC[C@@H](CCNS(=O)(=O)Cc3ccccc3)O[C@H]2CO)cc1 | -1.85% (inactive) | 
56 | C[C@H](CO)N1C[C@H](C)[C@@H](CN(C)C(=O)c2ccccc2)OCCCC[C@H](C)Oc2ccc(NC(=O)Nc3cccc4ccccc34)cc2C1=O | 37.5% (inactive) | 
57 | COCC#Cc1ccc2c(c1)O[C@H](CN(C)Cc1ccc3c(c1)OCO3)[C@H](C)CN([C@@H](C)CO)S2(=O)=O |  | activity change, negative = inhibition (at 60 µM (top of the series)): 6.47% (inactive)
58 | C[C@@H]1CN([C@@H](C)CO)C(=O)Cc2cc(NC(=O)CCCN(C)C)ccc2O[C@@H]1CN(C)Cc1ccc(Oc2ccccc2)cc1 |  | activity change, negative = inhibition (at 135 µM (top of the series)): 18% (inactive)
